Data: patent publication US12029738B2, “Antiproliferative compounds and methods of use thereof” (Celgene Corporation, priority 2017, dated 2024)
Entries after “also recorded” stand apart in the source; their conditions may differ. Like-named read-outs stand apart in the source and are kept apart here.

Legend:
OPM2-P10 = assay: PBMC and MM cell treatment assay (single culture vs co-culture); type: cell-based, human; settings: for IC50: Homo sapiens, PBMC, read-out: Immune-mediated Cell Killing IC50
Protocol: (§1) PBMC and MM Cell Treatment Assay Procedure. Ninety-six-well dishes were pre-coated with anti-CD3 antibody (OKT3, 3 μg/mL) and incubated at 4° C. overnight before the start of the experiment. Frozen PBMC donor cells were thawed at 37° C. for 2 minutes in RPMI medium with 10% FBS and cell counts and viability were measured on the Vi-CELL analyzer. Peripheral blood mononuclear cells were washed and diluted to 1×10^6 cells/mL and dispensed into the compound-treated plates in a total volume of 200 μL. Cells were incubated with compounds for 2 h before being transferred onto anti-CD3-coated plates and incubated for an additional 72 h. At the same time, MM cell lines (NCI-H929, H929-1051, OPM2, OPM2-P10) were diluted to a final concentration of 0.1×10^6 cells/mL and labeled with CellTrace CFSE according to manufacturer's instructions. Multiple myeloma cell lines were then dispensed into compound-treated plates at a total volume of 200 μL and incubated for 72 h. After 72 h, the PBMCs and MM cells were counted and transferred into a U-bottom 96-well plate at a final T:E ratio of 1:5. After 24 h coculture, specific target cell lysis by PBMC cells was measured using Annexin V-AF647 and 7-AAD according to manufacturer's instructions and samples were run on the Attune NxT Cytometer.
(§2) Because preincubation of immune cells with Compound 2 enhanced the targeting and lysing of MM cells, the effect of preincubation of MM cells with Compound 2 on their susceptibility to immune-mediated killing was also explored (FIG. 16A, FIG. 16B, FIG. 16C, and FIG. 16D, Table 12). Four MM cell lines and anti-CD3 antibody-activated PBMCs were separately preincubated with Compound 2, lenalidomide, or pomalidomide for 72 h. When anti-CD3 antibody-activated PBMCs and MM lines were both pretreated with Compound 2, lenalidomide, or pomalidomide, followed by co-culture, the effects on the PBMC-induced MM cell lysis were enhanced both in the potency and magnitude of the killing response. […] For the pomalidomide-resistant OPM2-P10 cell line, Compound 2 treatment of the MM cells enhanced the immune-mediated killing by ˜3000-fold (Table 12).

H929-1051 = assay: as above; type: cell-based, human; settings: for IC50: Homo sapiens, PBMC, read-out: Immune-mediated Cell Killing IC50
Protocol: as §1, §2

NCI-H929 = assay: as above; type: cell-based, human; settings: for IC50: Homo sapiens, NCI-H929, NCI-H929, read-out: Immune-mediated Cell Killing IC50
Protocol: as §1, §2

JJN-3 = assay: Flow cytometry proliferation/apoptosis assay (120 h); type: cell-based, human
Protocol: Methods. […] Using 5 mM stocks, compounds were pre-spotted into the appropriate wells of 96-well plates using a Hewlett-Packard D300 Digital Dispenser. Cells were added to 96-well plates using a Multidrop Combi Reagent Dispenser. After 5 days of treatment, flow cytometric analysis was used to determine the number of cells that were alive, dead, or apoptotic. After 5 days of treatment, cells were incubated with annexin V to stain exposed phosphatidylserine, an apoptotic cell-surface marker, and the vital dye 7-AAD, which is excluded from cells with intact cell membranes, and analyzed by flow cytometry (Attune®, Thermo Fisher). Analysis was then performed to determine the number of live cells (annexin V and 7-AAD double negative staining cells) and the percentage of apoptotic cells (annexin V positive cells) for each condition, relative to the DMSO control treated, was calculated. All described values were normalized to DMSO-only treated cells. […] The live cell count for every concentration was normalized to the DMSO control (considered as 100%) in Microsoft Excel to generate the proliferation curves. […] Similarly, for apoptosis analysis, the percentage of drug-induced apoptosis was calculated for all doses by combining both “early” (annexin V positive and 7-AAD negative) and “late” apoptosis (annexin V and 7-AAD positive) values and subtracting background values (cell treated with vehicle control DMSO). […] The area under the dose-response curve (AUC) was calculated since it integrates potency and efficacy of the drugs to represent apoptosis into a single parameter.
Each data point represents 2 independent experiments with at least two samples in each experiment.

CYP2C19 = target: T1, CYP2C19 (Homo sapiens, UniProt P33261); assay: CYP inhibition in pooled human liver microsomes; type: in vitro ADME
T1 construct: from tissue; host or cells: pooled human liver microsomes
T1 sequence (P33261 whole entry): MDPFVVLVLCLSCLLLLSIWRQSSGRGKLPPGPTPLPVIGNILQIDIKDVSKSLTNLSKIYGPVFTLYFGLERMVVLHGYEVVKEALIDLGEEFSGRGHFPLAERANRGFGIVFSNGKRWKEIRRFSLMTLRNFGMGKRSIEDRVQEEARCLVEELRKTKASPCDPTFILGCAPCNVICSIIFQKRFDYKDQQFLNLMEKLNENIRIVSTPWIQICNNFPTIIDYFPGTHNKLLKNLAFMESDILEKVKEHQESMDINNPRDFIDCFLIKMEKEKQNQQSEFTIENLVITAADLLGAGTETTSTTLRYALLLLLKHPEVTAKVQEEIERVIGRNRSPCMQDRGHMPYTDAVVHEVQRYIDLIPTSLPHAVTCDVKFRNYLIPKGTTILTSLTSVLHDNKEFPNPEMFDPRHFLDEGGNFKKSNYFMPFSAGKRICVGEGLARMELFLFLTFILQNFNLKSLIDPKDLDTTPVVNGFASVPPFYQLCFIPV
Protocol: (§3) Methods. […] In addition, the compounds were evaluated for their potential to act as a time-dependent inhibitors at the same concentrations mentioned above. […] In addition to appropriate vehicle controls, known direct inhibitors and time-dependent inhibitors of CYP isoforms were included as positive controls. Following the incubation, concentrations of probe substrate metabolites were quantified using established LC/MS/MS methods. The extent of inhibition was expressed as the percentage of control activity.

CYP2B6 = target: T2, CYP2B6 (Homo sapiens, UniProt P20813); assay: CYP inhibition in pooled human liver microsomes; type: in vitro ADME
T2 construct: from tissue; host or cells: pooled human liver microsomes
T2 sequence (P20813 1-491): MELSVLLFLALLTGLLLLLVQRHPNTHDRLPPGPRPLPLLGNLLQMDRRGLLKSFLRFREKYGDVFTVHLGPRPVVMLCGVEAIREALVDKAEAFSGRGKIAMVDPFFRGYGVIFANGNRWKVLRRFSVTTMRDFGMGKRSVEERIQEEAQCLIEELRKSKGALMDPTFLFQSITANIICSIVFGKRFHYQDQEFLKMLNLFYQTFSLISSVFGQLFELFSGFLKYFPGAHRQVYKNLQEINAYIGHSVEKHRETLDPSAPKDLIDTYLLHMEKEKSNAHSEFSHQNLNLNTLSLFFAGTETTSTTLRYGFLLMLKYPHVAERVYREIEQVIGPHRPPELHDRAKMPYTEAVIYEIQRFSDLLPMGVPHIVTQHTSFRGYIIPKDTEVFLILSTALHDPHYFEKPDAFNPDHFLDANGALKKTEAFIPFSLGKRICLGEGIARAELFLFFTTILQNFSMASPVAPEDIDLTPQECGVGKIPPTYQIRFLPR
Protocol: as §3

CYP2C9 = target: T3, CYP2C9 (Homo sapiens, UniProt P11712); assay: CYP inhibition in pooled human liver microsomes; type: in vitro ADME
T3 construct: from tissue; host or cells: pooled human liver microsomes
T3 sequence (P11712 whole entry): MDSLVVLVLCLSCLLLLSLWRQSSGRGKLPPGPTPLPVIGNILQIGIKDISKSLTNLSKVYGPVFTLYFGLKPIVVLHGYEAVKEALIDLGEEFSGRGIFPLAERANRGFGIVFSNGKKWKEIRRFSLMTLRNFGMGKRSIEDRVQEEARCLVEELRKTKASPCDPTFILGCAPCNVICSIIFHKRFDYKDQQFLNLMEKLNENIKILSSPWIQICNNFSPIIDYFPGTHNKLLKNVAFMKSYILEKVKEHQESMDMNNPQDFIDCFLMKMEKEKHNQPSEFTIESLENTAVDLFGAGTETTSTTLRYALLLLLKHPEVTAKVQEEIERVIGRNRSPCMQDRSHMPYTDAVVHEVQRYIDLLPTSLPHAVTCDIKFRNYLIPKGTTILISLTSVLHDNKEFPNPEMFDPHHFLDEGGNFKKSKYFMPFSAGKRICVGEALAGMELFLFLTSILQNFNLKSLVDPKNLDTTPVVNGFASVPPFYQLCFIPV
Protocol: as §3

CYP3A4/5 = assay: CYP inhibition in pooled human liver microsomes; type: in vitro ADME
Protocol: as §3

[1] = JJN-3 (DSMZ); 120 h; scale 0-10000
[2] = up to 30 μM, 30 minute preincubation with or without NADPH
[3] = up to / at 30 μM, human liver microsomes

N#Cc1ccc(N2CCN(Cc3ccc(COc4cccc5c4CN([C@H]4CCC(=O)NC4=O)C5=O)cc3)CC2)c(F)c1 [Compound 2, (S)-4-(4-(4-(((2-(2,6-dioxopiperidin-3-yl)-1-oxoisoindolin-4-yl)oxy)methyl)benzyl)piperazin-1-yl)-3-fluorobenzonitrile]
enhancement of immune-mediated killing, co-culture versus single culture IC50 (OPM2-P10): ~3000 fold
IC50 (OPM2-P10; Co-culture with PBMCs): 3.1 nM
IC50 (OPM2-P10; Single culture): > 10000 nM
enhancement of killing, co-culture versus single culture IC50 (H929-1051; H929-1051): ~6000 fold
IC50 (H929-1051; H929-1051, Single culture): 575 nM
IC50 (H929-1051): 0.1 nM
IC50 (NCI-H929; Co-culture with PBMCs): 0.087 nM
IC50 (NCI-H929; Single culture): 581 nM
enhancement of killing, co-culture versus single culture IC50 (NCI-H929; NCI-H929): ~7000 fold
IC50 (JJN-3; Homo sapiens, JJN-3, 120 h, read-out: Antiproliferative Activity (Flow Cytometry) IC50): 0.1 nM
induced apoptosis AUC (area under the dose response curve) (JJN-3; [1]): 1125
IC50 (CYP2C19): > 30000 nM
inhibition at 30 µM (CYP2C19; human, microsomes): 41%
inhibition at 30 µM (CYP2B6; human, microsomes): ≤ 30%
inhibition at 30 µM (CYP2C9; human, microsomes): ≤ 30%
IC50 (CYP3A4/5; human, microsomes): > 30000 nM
inhibition at 30 µM (CYP3A4/5; human, microsomes, direct inhibition of CYP3A4/5 (testosterone)): 46%
inhibition at 30 µM (CYP3A4/5; human, microsomes, inhibition of CYP3A4/5 (testosterone) activity after preincubation with NADPH): 59%
inhibition at 30 µM (CYP3A4/5; human, microsomes, inhibition of CYP3A4/5 (testosterone) activity after preincubation without NADPH): 23%

O=C1CC[C@H](N2Cc3c(OCc4ccc(CN5CCN(c6ccc(F)cc6F)CC5)cc4)cccc3C2=O)C(=O)N1 [Compound B]
direct inhibition of CYP2C19 (CYP2C19; at 30 μM, human liver microsomes): 45%
time-dependent inhibition of CYP2C19 (CYP2C19; [2]): little to no time-dependent inhibition; also recorded: not a time-dependent inhibitor
time-dependent inhibition of CYP2B6 (CYP2B6; [2]): little to no time-dependent inhibition; also recorded: not a time-dependent inhibitor
direct inhibition of CYP2B6 (CYP2B6; [3]): 59%
time-dependent inhibition of CYP2C9 (CYP2C9; [2]): little to no time-dependent inhibition; also recorded: not a time-dependent inhibitor
direct inhibition of CYP2C9 (CYP2C9; [3]): 38%
IC50 (CYP3A4/5; 30 minute preincubation with NADPH, substrate midazolam, read-out: shifted IC50 value (with NADPH) CYP3A4/5, midazolam): 2230 nM
IC50 (CYP3A4/5; 30 minute preincubation with NADPH, substrate testosterone, read-out: shifted IC50 value (with NADPH) CYP3A4/5, testosterone): 1930 nM
IC50 (CYP3A4/5; substrate testosterone, read-out: direct inhibition IC50 CYP3A4/5 (testosterone)): 2920 nM
time-dependent inhibition of CYP3A4/5 (overall finding) (CYP3A4/5; up to 30 μM, 30 minute preincubation): inhibited CYP3A4/5 in a time-dependent manner; also recorded: time-dependent inhibitor of CYP3A4/5
direct inhibition of CYP3A4/5 (midazolam) (CYP3A4/5; up to 30 μM, substrate midazolam): up to 30%

Nc1cccc2c1C(=O)N(C1CCC(=O)NC1=O)C2=O (centres unmarked) [Pomalidomide, pomalidomide]
IC50 (OPM2-P10; Co-culture with PBMCs): 1180 nM
IC50 (OPM2-P10; Single culture): > 10000 nM
IC50 (H929-1051; H929-1051, Co-culture with PBMCs): 71.3 nM
IC50 (H929-1051; H929-1051, Single culture): > 10000 nM
IC50 (NCI-H929; Co-culture with PBMCs): 44.4 nM
IC50 (NCI-H929; Single culture): > 10000 nM
IC50 (JJN-3; Homo sapiens; JJN-3; 120 h; read-out: Antiproliferative Activity (Flow Cytometry) IC50): 366 nM
induced apoptosis AUC (area under the dose response curve) (JJN-3; [1]): 199.1
